Measurements taken from patent US7138361B2, “Herbicidal heterocycles” (E. I. du Pont de Nemours and Company, priority 2000, dated 2006).

Tests used:
Assay type in all cases: in vivo
[1] = test system: Surinam grass (Brachiaria decumbens); assay: Test B postemergence
Method in brief: (§1)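 Pre: seeded pots sprayed, chemical in non-phytotoxic solvent/surfactant mix. Post: plants 2–18 cm, 1–4 leaf, same formulation. Greenhouse 13–15 d; visual % control vs untreated, 0–100 scale.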

[2] = test system: barnyardgrass (Echinochloa crus-galli); assay: Test B postemergence
Method in brief: as §1

[3] = test system: blackgrass (Alopecurus myosuroides); assay: Test B postemergence
Method in brief: as §1

[4] = test system: cocklebur (Xanthium strumarium); assay: Test B postemergence
Method in brief: as §1

[5] = test system: corn (Zea mays); assay: Test B postemergence
Method in brief: as §1

[6] = test system: crabgrass (Digitaria sanguinalis); assay: Test B postemergence
Method in brief: as §1

[7] = test system: giant foxtail (Setaria faberii); assay: Test B postemergence
Method in brief: as §1

[8] = test system: lambsquarters (Chenopodium album); assay: Test B postemergence
Method in brief: as §1

[9] = test system: morning glory (Ipomoea hederacea); assay: Test B postemergence
Method in brief: as §1

[10] = test system: pigweed (Amaranthus retroflexus); assay: Test B postemergence
Method in brief: as §1

[11] = test system: velvetleaf (Abutilon theophrasti); assay: Test B postemergence
Method in brief: as §1

[12] = test system: wheat (Triticum aestivum); assay: Test B postemergence
Method in brief: as §1

[13] = test system: wild oat (Avena fatua); assay: Test B postemergence
Method in brief: as §1

[14] = test system: Surinam grass (Brachiaria decumbens); assay: Test B preemergence
Method in brief: as §1

[15] = test system: barnyardgrass (Echinochloa crus-galli); assay: Test B preemergence
Method in brief: as §1

[16] = test system: cocklebur (Xanthium strumarium); assay: Test B preemergence
Method in brief: as §1

[17] = test system: corn (Zea mays); assay: Test B preemergence
Method in brief: as §1

[18] = test system: crabgrass (Digitaria sanguinalis); assay: Test B preemergence
Method in brief: as §1

[19] = test system: giant foxtail (Setaria faberii); assay: Test B preemergence
Method in brief: as §1

[20] = test system: lambsquarters (Chenopodium album); assay: Test B preemergence
Method in brief: as §1

[21] = test system: morning glory (Ipomoea hederacea); assay: Test B preemergence
Method in brief: as §1

[22] = test system: pigweed (Amaranthus retroflexus); assay: Test B preemergence
Method in brief: as §1

[23] = test system: rice (Oryza saliva); assay: Test B preemergence
Method in brief: as §1

[24] = test system: velvetleaf (Abutilon theophrasti); assay: Test B preemergence
Method in brief: as §1

[25] = test system: barnyardgrass (Echinochloa crus-galli); assay: Test B flooded paddy test; conditions: Rate 1000 g/ha, scale of 0 to 100 where 0 is no effect and 100 is complete control, visually evaluated after 13 to 15 days
Method in brief: (§2)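 2-leaf plants, flooded paddy; greenhouse 13–15 d post-treatment; visual rating vs controls, 0–100 scale (0 = no effect, 100 = complete control); dash = no result.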

[26] = test system: duck salad (Heteranthera limosa); assay: Test B flooded paddy test; conditions: Rate 1000 g/ha, scale of 0 to 100 where 0 is no effect and 100 is complete control, visually evaluated after 13 to 15 days
Method in brief: as §2

[27] = test system: rice (Oryza saliva); assay: Test B flooded paddy test; conditions: Rate 1000 g/ha, scale of 0 to 100 where 0 is no effect and 100 is complete control, visually evaluated after 13 to 15 days
Method in brief: as §2

[28] = test system: smallflower flatsedge (Cyperus difformis); assay: Test B flooded paddy test; conditions: Rate 1000 g/ha, scale of 0 to 100 where 0 is no effect and 100 is complete control, visually evaluated after 13 to 15 days
Method in brief: as §2

[29] = Rate 125 g/ha, scale 0 (no effect) to 100 (complete control), 13 to 15 days
[30] = Rate 500 g/ha, scale 0 to 100, 0 is no effect, 100 is complete control, 13 to 15 days
[31] = Preemergence, Rate 500 g/ha, scale 0 to 100, 0 no effect, 100 complete control
[32] = preemergence, Rate 125 g/ha, scale of 0 to 100 where 0 is no effect and 100 is complete control, 13 to 15 days
[33] = Rate 125 g/ha, scale 0 to 100, 0 no effect, 100 complete control
[34] = Rate 500 g/ha, scale 0 (no effect) to 100 (complete control), 13 to 15 days

For `COc1ccn(C2CCN(c3cccc(C(F)(F)F)c3)C2=O)n1` (stereo not shown) [Compound 60], the “Plant response rating, Surinam grass” value [1, 29] was 0, the “Plant response rating, Surinam grass” value [1, 30] was 0 and the “Plant response rating, Barnyardgrass” value [2, 29] was 0. The “Plant response rating, Barnyardgrass” value [2, 30] was 0, the “Plant response rating, Blackgrass” value [3, 29] was 0 and the “Plant response rating, Blackgrass” value [3, 30] was 0. The “Plant response rating, Cocklebur” value [4, 29] was 0, the “Plant response rating, Cocklebur” value [4, 30] was 0 and the “Plant response rating, Corn” value [5, 29] was 0. The “Plant response rating, Corn” value [5, 30] was 0, the “Plant response rating, Crabgrass” value [6, 29] was 0 and the “Plant response rating, Crabgrass” value [6, 30] was 0. The “Plant response rating, Foxtail, Giant” value [7, 29] was 0, the “Plant response rating, Foxtail, Giant” value [7, 30] was 0 and the “Plant response rating, Lambsquarters” value [8, 29] was 0. For the same molecule, the “Plant response rating, Lambsquarters” value [8, 30] was 0, the “Plant response rating, Morningglory” value [9, 29] was 0 and the “Plant response rating, Morningglory” value [9, 30] was 0. The “Plant response rating, Pigweed” value [10, 29] was 0, the “Plant response rating, Pigweed” value [10, 30] was 0 and the “Plant response rating, Velvetleaf” value [11, 29] was 0. The “Plant response rating, Velvetleaf” value [11, 30] was 0, the “Plant response rating, Wheat” value [12, 29] was 0 and the “Plant response rating, Wheat” value [12, 30] was 0. For the same molecule, the “Plant response rating, Wild Oat” value [13, 29] was 0, the “Plant response rating, Wild Oat” value [13, 30] was 0 and the “Plant response rating, Surinam grass” value [14, 31] was 0. For the same molecule, the “Plant response rating, Surinam grass” value [14, 32] was 0, the “Plant response rating, Barnyardgrass” value [15, 31] was 0 and the “Plant response rating, Barnyardgrass” value [15, 32] was 0. The “Plant response rating, Cocklebur” value [16, 31] was 0, the “Plant response rating, Cocklebur” value [16, 32] was 0 and the “Plant response rating, Corn” value [17, 31] was 0. For the same molecule, the “Plant response rating, Corn” value [17, 32] was 0, the “Plant response rating, Crabgrass” value [18, 31] was 0 and the “Plant response rating, Foxtail, Giant” value [19, 31] was 0. The “Plant response rating, Foxtail, Giant” value [19, 32] was 0, the “Plant response rating, Lambsquarters” value [20, 31] was 0 and the “Plant response rating, Lambsquarters” value [20, 32] was 0. The “Plant response rating, Morningglory” value [21, 31] was 0, the “Plant response rating, Morningglory” value [21, 32] was 0 and the “Plant response rating, Pigweed” value [22, 31] was 100. For the same molecule, the “Plant response rating, Pigweed” value [22, 32] was 0, the “Plant response rating, Rice” value [23, 31] was 0 and the “Plant response rating, Rice” value [23, 32] was 0. The “Plant response rating, Velvetleaf” value [24, 31] was 0, the “Plant response rating, Velvetleaf” value [24, 32] was 0 and the “Plant response rating, Barnyardgrass” value [25] was 0. For the same molecule, the “Plant response rating, Ducksalad” value [26] was 50, the “Plant response rating, Rice” value [27] was 0 and the “Plant response rating, Flatsedge” value [28] was 0.

For `CC(C)(C)c1ccn(C2CCN(c3cccc(OC(=O)C(F)(F)F)c3)C2=O)n1` (stereo not shown) [Compound 94], the “Plant response rating, Surinam grass” value [1, 29] was 0, the “Plant response rating, Surinam grass” value [1, 30] was 0 and the “Plant response rating, Barnyardgrass” value [2, 29] was 0. The “Plant response rating, Barnyardgrass” value [2, 30] was 0, the “Plant response rating, Blackgrass” value [3, 29] was 0 and the “Plant response rating, Blackgrass” value [3, 30] was 0. The “Plant response rating, Cocklebur” value [4, 29] was 0, the “Plant response rating, Cocklebur” value [4, 30] was 0 and the “Plant response rating, Corn” value [5, 29] was 0. For the same molecule, the “Plant response rating, Corn” value [5, 30] was 0, the “Plant response rating, Crabgrass” value [6, 29] was 0 and the “Plant response rating, Crabgrass” value [6, 30] was 0. The “Plant response rating, Foxtail, Giant” value [7, 29] was 0, the “Plant response rating, Foxtail, Giant” value [7, 30] was 0 and the “Plant response rating, Lambsquarters” value [8, 30] was 20. The “Plant response rating, Morningglory” value [9, 30] was 0, the “Plant response rating, Pigweed” value [10, 30] was 10 and the “Plant response rating, Velvetleaf” value [11, 30] was 0. The “Plant response rating, Wheat” value [12, 30] was 0, the “Plant response rating, Wild Oat” value [13, 30] was 0 and the “Plant response rating, Surinam grass” value [14, 31] was 0. For the same molecule, the “Plant response rating, Surinam grass” value [14, 32] was 0, the “Plant response rating, Barnyardgrass” value [15, 31] was 0 and the “Plant response rating, Barnyardgrass” value [15, 32] was 0. The “Plant response rating, Cocklebur” value [16, 31] was 0, the “Plant response rating, Cocklebur” value [16, 32] was 0 and the “Plant response rating, Corn” value [17, 31] was 0. For the same molecule, the “Plant response rating, Corn” value [17, 32] was 0, the “Plant response rating, Crabgrass” value [18, 31] was 30 and the “Plant response rating, Crabgrass” value [18, 32] was 0. For the same molecule, the “Plant response rating, Foxtail, Giant” value [19, 31] was 0, the “Plant response rating, Foxtail, Giant” value [19, 32] was 0 and the “Plant response rating, Lambsquarters” value [20, 31] was 100. For the same molecule, the “Plant response rating, Lambsquarters” value [20, 32] was 0, the “Plant response rating, Morningglory” value [21, 31] was 0 and the “Plant response rating, Morningglory” value [21, 32] was 0. The “Plant response rating, Pigweed” value [22, 31] was 0, the “Plant response rating, Pigweed” value [22, 32] was 0 and the “Plant response rating, Rice” value [23, 31] was 20. For the same molecule, the “Plant response rating, Rice” value [23, 32] was 0, the “Plant response rating, Velvetleaf” value [24, 31] was 70 and the “Plant response rating, Velvetleaf” value [24, 32] was 0. For the same molecule, the “Plant response rating, Barnyardgrass” value [25] was 0, the “Plant response rating, Ducksalad” value [26] was 0 and the “Plant response rating, Rice” value [27] was 0. The “Plant response rating, Flatsedge” value [28] was 0.

`Cc1ccnc(N2CCC(n3ccc(C(C)(C)C)n3)C2=O)c1` (stereo not shown) [Compound 139] was tested, and the “Plant response rating, Surinam grass” value [1, 33] was 0, the “Plant response rating, Surinam grass” value [1, 34] was 0 and the “Plant response rating, Barnyardgrass” value [2, 33] was 0. For the same molecule, the “Plant response rating, Barnyardgrass” value [2, 34] was 0, the “Plant response rating, Blackgrass” value [3, 33] was 0 and the “Plant response rating, Blackgrass” value [3, 34] was 0. The “Plant response rating, Cocklebur” value [4, 33] was 0, the “Plant response rating, Cocklebur” value [4, 34] was 0 and the “Plant response rating, Corn” value [5, 33] was 0. For the same molecule, the “Plant response rating, Corn” value [5, 34] was 0, the “Plant response rating, Crabgrass” value [6, 33] was 0 and the “Plant response rating, Crabgrass” value [6, 34] was 0. The “Plant response rating, Foxtail, Giant” value [7, 33] was 0, the “Plant response rating, Foxtail, Giant” value [7, 34] was 0 and the “Plant response rating, Lambsquarters” value [8, 33] was 0. The “Plant response rating, Lambsquarters” value [8, 34] was 0, the “Plant response rating, Morningglory” value [9, 33] was 0 and the “Plant response rating, Morningglory” value [9, 34] was 0. The “Plant response rating, Pigweed” value [10, 33] was 0, the “Plant response rating, Pigweed” value [10, 34] was 0 and the “Plant response rating, Velvetleaf” value [11, 33] was 0. The “Plant response rating, Velvetleaf” value [11, 34] was 0, the “Plant response rating, Wheat” value [12, 33] was 0 and the “Plant response rating, Wheat” value [12, 34] was 0. The “Plant response rating, Wild Oat” value [13, 33] was 0, the “Plant response rating, Wild Oat” value [13, 34] was 0 and the “Plant response rating, Surinam grass” value [14, 31] was 0. For the same molecule, the “Plant response rating, Surinam grass” value [14, 32] was 0, the “Plant response rating, Barnyardgrass” value [15, 31] was 0 and the “Plant response rating, Barnyardgrass” value [15, 32] was 0. The “Plant response rating, Cocklebur” value [16, 31] was 0, the “Plant response rating, Corn” value [17, 31] was 0 and the “Plant response rating, Corn” value [17, 32] was 0. The “Plant response rating, Crabgrass” value [18, 31] was 0, the “Plant response rating, Crabgrass” value [18, 32] was 0 and the “Plant response rating, Foxtail, Giant” value [19, 31] was 0. The “Plant response rating, Foxtail, Giant” value [19, 32] was 0, the “Plant response rating, Lambsquarters” value [20, 31] was 100 and the “Plant response rating, Lambsquarters” value [20, 32] was 100. The “Plant response rating, Morningglory” value [21, 31] was 0, the “Plant response rating, Morningglory” value [21, 32] was 0 and the “Plant response rating, Pigweed” value [22, 31] was 100. For the same molecule, the “Plant response rating, Pigweed” value [22, 32] was 0, the “Plant response rating, Rice” value [23, 31] was 0 and the “Plant response rating, Rice” value [23, 32] was 0. The “Plant response rating, Velvetleaf” value [24, 31] was 0, the “Plant response rating, Velvetleaf” value [24, 32] was 0 and the “Plant response rating, Barnyardgrass” value [25] was 20. For the same molecule, the “Plant response rating, Ducksalad” value [26] was 0, the “Plant response rating, Rice” value [27] was 0 and the “Plant response rating, Flatsedge” value [28] was 70.
